Source: paper PMC9592870 (Molecular Diversity, 2022)
Values after ≈ are worked out from the molar mass of the structure shown.

Test system: DR-Mtb strains
Assay: microbe, parasite or virus in culture
Assay type: cell-based
Conditions: Mycobacterium tuberculosis, read-out: MIC against all DR-Mtb strains

| Compound | MIC [µg/mL] |
| --- | --- |
| COC(=O)c1cc(-c2cccc(NC(=S)Nc3ccc(Cl)cc3)c2)on1 [5f, Methyl 5-(3-(3-(4-chlorophenyl)thioureido)phenyl)isoxazole-3-carboxylate] | 0.5 to 4 (≈ 1.29 to 10.3 µM) |
| COC(=O)c1cc(-c2ccc(NC(=O)Nc3ccc(Cl)c(Cl)c3)cc2)on1 [4tb, Methyl 5-(4-(3-(3,4-dichlorophenyl)ureido)phenyl)isoxazole-3-carboxylate] | 1 to 4 (≈ 2.46 to 9.85 µM) |
| COC(=O)c1cc(-c2cccc(NC(=O)Nc3ccc(Cl)c(Cl)c3)c2)on1 [4t, Methyl 5-(3-(3-(3,4-dichlorophenyl)ureido)phenyl)isoxazole-3-carboxylate] | 0.5 to 4 (≈ 1.23 to 9.85 µM) |
